{"source": "the supplement of paper PMC10307832", "experiment_in_all_cases": "relative viability (nuclei count vs DMSO), 5 days (fraction); higher = more cells survive", "key": {"[1]": {"compound": "CC1=CC(=CC=C1)NC2=NC(=CS2)C3=CC=NC=C3 + CC1(C)CCC(c2ccc(Cl)cc2)=C(CN2CCN(c3ccc(C(=O)NS(=O)(=O)c4ccc(N[C@H](CCN5CCOCC5)CSc5ccccc5)c(S(=O)(=O)C(F)(F)F)c4)cc3)CC2)C1 [Navitoclax] (partner 0.5 µM)", "outline": "(§1)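 Medians of duplicate plates are given as relative viability. That measure is the nuclei count in treated wells divided by the count in vehicle wells. Counts were taken on 4× images of lung cancer cell lines in 1536-well plates, 5 days after pin-tool dosing the day after seeding with one drug alone or a fixed anchor-drug dose plus five library-drug doses (not always all listed) in √10 steps.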"}, "[2]": {"compound": "CC1=CC(=CC=C1)NC2=NC(=CS2)C3=CC=NC=C3 + N=C(N)NC(=N)NCCc1ccccc1 [Phenformin] (partner 250 µM)", "outline": "as §1"}, "Masitinib + Alpelisib": {"compound": "Cc1ccc(NC(=O)c2ccc(CN3CCN(C)CC3)cc2)cc1Nc1nc(-c2cccnc2)cs1 [Masitinib] + Cc1nc(NC(=O)N2CCC[C@H]2C(N)=O)sc1-c1ccnc(C(C)(C)C(F)(F)F)c1 [Alpelisib] (partner 2 µM)", "outline": "as §1"}, "Masitinib + Pemetrexed": {"compound": "Cc1ccc(NC(=O)c2ccc(CN3CCN(C)CC3)cc2)cc1Nc1nc(-c2cccnc2)cs1 [Masitinib] + Nc1nc2[nH]cc(CCc3ccc(C(=O)N[C@@H](CCC(=O)O)C(=O)O)cc3)c2c(=O)[nH]1 [Pemetrexed] (partner 0.2 µM)", "outline": "as §1"}}}
{"cell line": "UMC-11", "values": [{"measurement": "relative viability", "setting": "[1]; first compound 0.08 µM", "result": 0.281}, {"measurement": "relative viability", "setting": "[1]; first compound 0.253 µM", "result": 0.266}, {"measurement": "relative viability", "setting": "[1]; first compound 0.8 µM", "result": 0.295}, {"measurement": "relative viability", "setting": "[1]; first compound 2.53 µM", "result": 0.348}, {"measurement": "relative viability", "setting": "[1]; first compound 8 µM", "result": 0.478}, {"measurement": "relative viability", "setting": "[2]; first compound 0.08 µM", "result": 0.314}, {"measurement": "relative viability", "setting": "[2]; first compound 0.253 µM", "result": 0.298}, {"measurement": "relative viability", "setting": "[2]; first compound 0.8 µM", "result": 0.32}, {"measurement": "relative viability", "setting": "[2]; first compound 2.53 µM", "result": 0.307}, {"measurement": "relative viability", "setting": "[2]; first compound 8 µM", "result": 0.349}, {"measurement": "relative viability", "setting": "Masitinib + Alpelisib; first compound 0.01 µM", "result": 0.899}, {"measurement": "relative viability", "setting": "Masitinib + Alpelisib; first compound 0.03162 µM", "result": 0.713}, {"measurement": "relative viability", "setting": "Masitinib + Alpelisib; first compound 0.1 µM", "result": 1.12}, {"measurement": "relative viability", "setting": "Masitinib + Alpelisib; first compound 0.3162 µM", "result": 1.17}, {"measurement": "relative viability", "setting": "Masitinib + Alpelisib; first compound 1 µM", "result": 1.2}, {"measurement": "relative viability", "setting": "Masitinib + Pemetrexed; first compound 0.01 µM", "result": 0.755}, {"measurement": "relative viability", "setting": "Masitinib + Pemetrexed; first compound 0.03162 µM", "result": 0.751}, {"measurement": "relative viability", "setting": "Masitinib + Pemetrexed; first compound 0.1 µM", "result": 0.783}, {"measurement": "relative viability", "setting": "Masitinib + Pemetrexed; first compound 0.3162 µM", "result": 0.813}, {"measurement": "relative viability", "setting": "Masitinib + Pemetrexed; first compound 1 µM", "result": 0.882}]}
